Columns and labels:
SF-268 = assay: cells; type: cell-based, human; conditions: read-out: GI50 SF-268 CNS
OVCAR-8 = assay: NCI 60 Human Tumor Cell Line Anticancer Screen; type: cell-based; conditions: OVCAR-8, Ovary
HT29 = assay: NCI 60 Human Tumor Cell Line Anticancer Screen; type: cell-based; conditions: HT29, Colon
Hep3b = assay: cells; type: cell-based, human; conditions: read-out: GI50 Hep3b liver
NCI-H226 = assay: NCI 60 Human Tumor Cell Line Anticancer Screen; type: cell-based; conditions: NCI-H226, Non-small cell lung
MALME-3M = assay: NCI 60 Human Tumor Cell Line Anticancer Screen; type: cell-based; conditions: Melanoma
SK-MEL-5 = assay: NCI 60 Human Tumor Cell Line Anticancer Screen; type: cell-based; conditions: SK-MEL-5, Melanoma
MDA-MB-435 = assay: NCI 60 Human Tumor Cell Line Anticancer Screen; type: cell-based; conditions: MDA-MB-435, Melanoma
NCI-H522 = assay: NCI 60 Human Tumor Cell Line Anticancer Screen; type: cell-based; conditions: NCI-H522, Non-small cell lung
SNB-75 = assay: NCI 60 Human Tumor Cell Line Anticancer Screen; type: cell-based; conditions: SNB-75, CNS
K-562 = assay: NCI 60 Human Tumor Cell Line Anticancer Screen; type: cell-based; conditions: K-562, Leukemia
MOLT-4 = assay: NCI 60 Human Tumor Cell Line Anticancer Screen; type: cell-based; conditions: MOLT-4, Leukemia
SF-539 = assay: NCI 60 Human Tumor Cell Line Anticancer Screen; type: cell-based; conditions: SF-539, CNS
ACHN = assay: NCI 60 Human Tumor Cell Line Anticancer Screen; type: cell-based; conditions: Renal
NCI-H460 [1] = assay: cells; type: cell-based, human; conditions: read-out: GI50 NCI-H460 lung
CAKI-1 = assay: NCI 60 Human Tumor Cell Line Anticancer Screen; type: cell-based; conditions: CAKI-1, Renal
SK-MEL-28 = assay: NCI 60 Human Tumor Cell Line Anticancer Screen; type: cell-based; conditions: SK-MEL-28, Melanoma
NCI-H322M = assay: NCI 60 Human Tumor Cell Line Anticancer Screen; type: cell-based; conditions: Non-small cell lung
A549/ATCC = assay: NCI 60 Human Tumor Cell Line Anticancer Screen; type: cell-based; conditions: Non-small cell lung
SW-620 = assay: NCI 60 Human Tumor Cell Line Anticancer Screen; type: cell-based; conditions: SW-620, Colon
HCT-15 = assay: cells; type: cell-based, human
BT-549 = assay: NCI 60 Human Tumor Cell Line Anticancer Screen; type: cell-based; conditions: BT-549, Breast
OVCAR-3 = assay: NCI 60 Human Tumor Cell Line Anticancer Screen; type: cell-based; conditions: OVCAR-3, Ovary
SKOV3 [2] = assay: cells; type: cell-based, human; conditions: read-out: GI50 SKOV3 ovary
OVCAR-5 = assay: NCI 60 Human Tumor Cell Line Anticancer Screen; type: cell-based; conditions: OVCAR-5, Ovary
MDA-MB-231 = assay: NCI 60 Human Tumor Cell Line Anticancer Screen; type: cell-based; conditions: MDA-MB-231, Breast
SKOV3 [3] = assay: NCI 60 Human Tumor Cell Line Anticancer Screen; type: cell-based; conditions: SKOV3, Ovary
SK-MEL-2 = assay: NCI 60 Human Tumor Cell Line Anticancer Screen; type: cell-based; conditions: SK-MEL-2, Melanoma
NCI-H460 [4] = assay: NCI 60 Human Tumor Cell Line Anticancer Screen; type: cell-based; conditions: NCI-H460, Non-small cell lung
IGROV1 = assay: NCI 60 Human Tumor Cell Line Anticancer Screen; type: cell-based; conditions: IGROV1, Ovary
KM12 = assay: NCI 60 Human Tumor Cell Line Anticancer Screen; type: cell-based; conditions: KM12, Colon
786-0 = assay: NCI 60 Human Tumor Cell Line Anticancer Screen; type: cell-based; conditions: 786-0, Renal
COLO 205 = assay: NCI 60 Human Tumor Cell Line Anticancer Screen; type: cell-based; conditions: COLO 205, Colon
SF-295 = assay: NCI 60 Human Tumor Cell Line Anticancer Screen; type: cell-based; conditions: SF-295, CNS
M14 = assay: NCI 60 Human Tumor Cell Line Anticancer Screen; type: cell-based; conditions: M14, Melanoma
DU-145 [5] = assay: cells; type: cell-based, human; conditions: read-out: GI50 DU-145 prostate
PC-3 = assay: NCI 60 Human Tumor Cell Line Anticancer Screen; type: cell-based; conditions: PC-3, Prostate
DU-145 [6] = assay: NCI 60 Human Tumor Cell Line Anticancer Screen; type: cell-based; conditions: DU-145, Prostate
T-47D = assay: NCI 60 Human Tumor Cell Line Anticancer Screen; type: cell-based; conditions: Breast

## CON(CCCCc1ccc(N(CCCl)CCCl)cc1)C1OCC(O)C1O (stereo not shown) [Compound 60]
SF-268
  GI50: 1.5 ± 0.1 µM
OVCAR-8
  GI50: 9.13 µM
OVCAR-8; 10 μM
  Inhibition at 10 μM: 68.13%
HT29
  GI50: 26.6 µM
HT29; 10 μM
  Inhibition at 10 μM: 70.71%
Hep3b
  GI50: 0.67 ± 0.06 µM
NCI-H226
  GI50: 0.925 µM
NCI-H226; 10 μM
  Inhibition at 10 μM: 84.25%
MALME-3M
  GI50: 20.2 µM
MALME-3M; 10 μM
  Inhibition at 10 μM: 69.73%
SK-MEL-5
  GI50: 17.7 µM
SK-MEL-5; 10 μM
  Inhibition at 10 μM: 79.00%
MDA-MB-435
  GI50: 21.1 µM
MDA-MB-435; 10 μM
  Inhibition at 10 μM: 83.03%
NCI-H522
  GI50: 10 µM
NCI-H522; 10 μM
  Inhibition at 10 μM: 52.38%
SNB-75
  GI50: 19.5 µM
SNB-75; 10 μM
  Inhibition at 10 μM: 66.74%
K-562
  Inhibition at 10 μM: 88.55%
MOLT-4
  GI50: 1.22 µM
MOLT-4; 10 μM
  Inhibition at 10 μM: 64.41%
SF-539
  GI50: 8.8 µM
SF-539; 10 μM
  Inhibition at 10 μM: 51.79%
ACHN
  GI50: 4.34 µM
ACHN; 10 μM
  Inhibition at 10 μM: 14.27%
NCI-H460 [1]
  GI50: 1.7 ± 0.4 µM
CAKI-1
  GI50: 11.5 µM
CAKI-1; 10 μM
  Inhibition at 10 μM: 13.59%
SK-MEL-28
  GI50: 36.5 µM
SK-MEL-28; 10 μM
  Inhibition at 10 μM: 116.87%
NCI-H322M
  GI50: > 100 µM
NCI-H322M; 10 μM
  Inhibition at 10 μM: 99.02%
A549/ATCC
  GI50: 12.2 µM
A549/ATCC; 10 μM
  Inhibition at 10 μM: 69.72%
SW-620
  GI50: 12.4 µM
SW-620; 10 μM
  Inhibition at 10 μM: 68.08%
HCT-15
  improved activity over the parent drug: 15 fold
HCT-15; read-out: GI50 HCT-15 colorectal
  GI50: 0.53 ± 0.05 µM
BT-549
  GI50: 13.4 µM
BT-549; 10 μM
  Inhibition at 10 μM: 38.53%
OVCAR-3
  GI50: 15.3 µM
OVCAR-3; 10 μM
  Inhibition at 10 μM: 85.34%
SKOV3 [2]
  GI50: 1.5 ± 0.1 µM
OVCAR-5
  Inhibition at 10 μM: 111.11%
MDA-MB-231
  GI50: 1.39 µM
MDA-MB-231; 10 μM
  Inhibition at 10 μM: 87.54%
SKOV3 [3]
  GI50: 17.9 µM
SKOV3 [3]; 10 μM
  Inhibition at 10 μM: 72.76%
SK-MEL-2
  GI50: 20.2 µM
SK-MEL-2; 10 μM
  Inhibition at 10 μM: 100.16%
NCI-H460 [4]
  GI50: 3.76 µM
NCI-H460 [4]; 10 μM
  Inhibition at 10 μM: 35.80%
IGROV1
  GI50: 1.21 µM
KM12
  GI50: 30 µM
KM12; 10 μM
  Inhibition at 10 μM: 97.57%
786-0
  GI50: 6.16 µM
786-0; 10 μM
  Inhibition at 10 μM: 67.90%
COLO 205
  GI50: 12.7 µM
COLO 205; 10 μM
  Inhibition at 10 μM: 93.34%
SF-295
  GI50: 6.47 µM
SF-295; 10 μM
  Inhibition at 10 μM: 56.59%
M14
  GI50: 9.25 µM
M14; 10 μM
  Inhibition at 10 μM: 67.23%
DU-145 [5]
  GI50: 1.8 ± 0.1 µM
PC-3
  GI50: 11.7 µM
PC-3; 10 μM
  Inhibition at 10 μM: 72.52%
DU-145 [6]
  GI50: 4.84 µM
DU-145 [6]; 10 μM
  Inhibition at 10 μM: 56.78%
T-47D
  GI50: 6.37 µM
T-47D; 10 μM
  Inhibition at 10 μM: 48.01%

— patent US8552176B2 (priority 2010, dated 2013)
